PubChem BioAssay (NCI)
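Cultured in 96-well plates, cells were exposed to test compound for 48 hours across five concentrations. TGI: total growth inhibition.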

Tests used:
Experiment in all cases: DTP human tumour cell line panel, 48 h
SR leukemia = test system: SR leukemia
SN12C renal = test system: SN12C renal
MALME-3M melanoma = test system: MALME-3M melanoma
UACC-62 melanoma = test system: UACC-62 melanoma
SK-MEL-2 melanoma = test system: SK-MEL-2 melanoma
RPMI-8226 leukemia = test system: RPMI-8226 leukemia
BT-549 breast = test system: BT-549 breast
NCI-H23 lung = test system: NCI-H23 lung
MDA-MB-231 breast = test system: MDA-MB-231 breast
NCI-H460 lung = test system: NCI-H460 lung
SK-MEL-28 melanoma = test system: SK-MEL-28 melanoma
NCI/ADR-RES ovarian = test system: NCI/ADR-RES ovarian
COLO 205 colon = test system: COLO 205 colon
A549 NSCLC = test system: A549 NSCLC
NCI-H226 lung = test system: NCI-H226 lung
EKVX NSCLC = test system: EKVX NSCLC
U251 CNS = test system: U251 CNS
SNB-75 CNS = test system: SNB-75 CNS
HCT-116 colon = test system: HCT-116 colon
OVCAR-3 ovarian = test system: OVCAR-3 ovarian

SMILES | TGI (SR leukemia) | TGI (SN12C renal) | TGI (MALME-3M melanoma) | TGI (UACC-62 melanoma) | TGI (SK-MEL-2 melanoma) | TGI (RPMI-8226 leukemia) | TGI (BT-549 breast) | TGI (NCI-H23 lung) | TGI (MDA-MB-231 breast) | TGI (NCI-H460 lung) | TGI (SK-MEL-28 melanoma) | TGI (NCI/ADR-RES ovarian) | TGI (COLO 205 colon) | TGI (A549 NSCLC) | TGI (NCI-H226 lung) | TGI (EKVX NSCLC) | TGI (U251 CNS) | TGI (SNB-75 CNS) | TGI (HCT-116 colon) | TGI (OVCAR-3 ovarian)
CCOC(=O)/C=C(/C(=O)OCC)n1cnc2c(=O)[nH]c(NC(C)=O)nc21 | > 100 µM | > 100 µM | > 100 µM | > 100 µM | > 100 µM | > 100 µM | > 100 µM | > 100 µM | > 100 µM | > 100 µM | > 100 µM | > 100 µM | > 100 µM | > 100 µM | > 100 µM | > 100 µM | > 100 µM | > 100 µM | > 100 µM | > 100 µM
CC(=O)N(C)CCc1c[nH]c2ccccc12 | > 100 µM | > 100 µM | > 100 µM | > 100 µM | > 100 µM | > 100 µM | > 100 µM | > 100 µM | > 100 µM | > 100 µM | > 100 µM | > 100 µM | > 100 µM | > 100 µM | > 100 µM | > 100 µM | > 100 µM | > 100 µM | > 100 µM | > 100 µM
COC(=O)/C=C\C(C#N)(C#N)N=Cc1cc(Br)cs1 | > 100 µM | 7.64 µM | 3.47 µM | 33 µM | 25.5 µM | > 71.3 µM | 17.9 µM | 13.5 µM | 23.3 µM | 40.7 µM | 10.4 µM | 36.3 µM | 3.99 µM | 32.4 µM | 35.3 µM | 18.7 µM | 29.3 µM | 29.7 µM | 3.72 µM | 17.4 µM
CC1=C(/C=C/C(C)=C/C=C/C(C)=C/C(=O)OC2CC(n3cc(F)c(=O)[nH]c3=O)OC2CO)C(C)(C)CCC1 (stereo not given) | > 47.2 µM | 32 µM | 31.9 µM | 4.96 µM | 55.5 µM | 15.8 µM | 22.3 µM | 20.7 µM | 29.4 µM | 15.3 µM | 24.6 µM | 24.9 µM | 25.8 µM | 17.6 µM | 52.7 µM | 32.9 µM | 20 µM | 18.6 µM | 14.4 µM | 22.5 µM
O=C(NNC(=O)c1ccccc1O)c1cccc(Br)c1 | > 100 µM | > 100 µM | > 100 µM | > 100 µM | > 100 µM | > 100 µM | > 100 µM | > 100 µM | > 77.7 µM | > 100 µM | > 100 µM | > 100 µM | > 100 µM | > 100 µM | > 100 µM | > 100 µM | > 100 µM | > 100 µM | > 100 µM | > 100 µM
Cc1cc(/N=C/c2ccc(F)cc2)n(-c2ccccc2)n1 | > 100 µM | > 100 µM | > 100 µM | > 100 µM | > 100 µM | 92.8 µM | > 100 µM | > 100 µM | > 100 µM | > 100 µM | > 100 µM | > 100 µM | > 100 µM | > 100 µM | > 100 µM | > 100 µM | > 100 µM | > 100 µM | > 100 µM | > 100 µM
CC(=O)O[C@H]1CC[C@@]2(C)C(=CC[C@H]3[C@@H]4C/C(=C\c5ccc(N(C)C)cc5)[C@H](OC(C)=O)[C@@]4(C)CC[C@@H]32)C1 | > 100 µM | 37.9 µM | 29.7 µM | 20.7 µM | 22.5 µM | > 100 µM | 33.4 µM | 30.9 µM | 29.4 µM | 18.2 µM | 32.8 µM | 35.4 µM | 29.4 µM | 31.7 µM | 33.4 µM | 36.7 µM | 19.4 µM | > 100 µM | 25.3 µM | 41.8 µM
